Common to all, as to assay type: cell-based, human
The test system of assay [1] is Oct4, Nanog, Sox2, KLF4, c-myc, c-PARP. Put plainly: Western blot of stem cell transcription factors and c-PARP in CCSCs.
Assay [2] concerns CCSCs. Put plainly: Annexin V FITC/PI flow cytometry apoptosis assay in CCSCs. The settings on record: 24 hours; d-T3 50 μM, aspirin 5 mM. Here is the method: FIGS. 10A, 10B, 10C, and 10D show induction of apoptosis measured by flow cytometry (FIG. 10A) and confocal microscopy (FIG. 10B) in CCSCs after treatment with vehicle, aspirin, d-T3, and aspirin+d-T3. Effect of BID inhibitor on apoptosis in CCSCs after treatment with aspirin or d-T3 (FIG. 10C). Induction oft-BID in CCSCs after treatment with vehicle, aspirin, d-T3, and aspirin+d-T3 (FIG. 10D).
d-T3 can induce selective killing of CCSCs through the BH3 interacting-domain death agonist (BID). […] It should be noted that these in vitro results are consistent with the in vivo observation of the selective induction of apoptosis in APC mutant colon crypt cells in the ApcMin/+ mice but not in the normal intestinal cells of the AOM rat CRC model or NOD/SCID mice. […] Although the proapoptotic activity of d-T3 is a consistent observation of d-T3 anticancer activity in all of the published reports, the mechanism by which d-T3 induces apoptosis is poorly understood. Apoptotic death is regulated by the death receptor (extrinsic) and mitochondrial (intrinsic) pathways. These 2 pathways crosstalk under certain conditions through caspase-8-mediated cleavage of BID, a BH3-only Bcl-2 family member. The activated and truncated BID (tBID) then engages the intrinsic pathway for efficient apoptosis induction. To obtain preliminary information regarding the mechanisms by which d-T3 induces apoptosis in CCSCs, the activation of BID was measured after 24-hour treatment with vehicle, aspirin (5 mM), d-T3 (50 μM), and aspirin combined with d-T3 in CCSCs by Western blotting.
In general terms: A flow cytometer gives signals particle by particle.

Assay [3] has as its system SW-620. Briefly: Apoptosis induction in SW-620.
For assay [4], the system named is MiaPaCa-2 cell. Put plainly: MiaPaCa-2 cell viability at increasing concentrations.
Assay [5] has as its system MiaPaCa-2 cells stably expressing hCAS. Briefly: Cell death in MiaPaCa-2 cells stably over-expressing hCAS. The conditions noted are these: hCAS over-expression, p<0.02. An excerpt: To determine whether hCAS over-expression can rescue from δ-T3 effects, MiaPaCa-2 cells stably expressing hCAS were generated by transfecting these cells with the hCAS gene-containing plasmid pCMV6-AC-GFP (Cat #RG211478, […]) and selecting the cells stably expressing hCAS under G418 pressure. MiaPaCa-2 cells expressing the same plasmid without the hCAS gene were also generated as empty vector control. […] The inability of over-expression to entirely overcome the effect of δ-T3 treatment further illustrates the robustness of a δ-T3 therapeutic approach.

Molecules are shown by their SMILES.

`CC(C)=CCC/C(C)=C/CC/C(C)=C/CC[C@]1(C)CCc2cc(O)cc(C)c2O1` [d-T3, δ-tocotrienol]: in assay [1], the “expression of Oct4, Nanog, Sox2, KLF4, and c-myc” value is reported as “downregulation”; the “expression of c-PARP” value was “upregulation”. In assay [2], the induction of apoptosis result is given as “much more effective than aspirin”. In addition, the apoptosis result in assay [3] was “significantly induced apoptosis”. The “cell killing at 100 μM concentration” value in assay [4] (100 μM) is listed as “killing almost all cells”. The “effect on cell viability” value in assay [4] (increasing concentrations) is “most potent”. The “cancer cell death versus the hCAS vehicle” value in assay [5] is reported as “induces significant cancer cell death”.

For the origin of these results see patent US20210205264A1, “USE OF DELTA-TOCOTRIENOL FOR TREATING CANCER” (H. LEE MOFFITT CANCER CENTER & RESEARCH INSTITUTE INC., priority 2018, published 2021).
